From patent US20210177879A1, “VITAMIN D RECEPTOR AGONIST” (Guanghzou University of Chinese Medicine, priority 2018, published 2021)

How the values were obtained:
[1] = system: AOM/DSS colon cancer model; test: AOM/DSS colon cancer model, Experiment 1 (body weight, anal prolapse, organ coefficient, colon and tumor indexes); type: in vivo, Balb/c mice
Method: Experimental method: 90 Balb/c mice of 6-8 weeks were purchased from the Experimental Animal Center in Guangzhou University of Chinese Medicine, weighed about 18-22 g, and subjected to adaptive feeding for 10 days. Modeling was divided into three stages. In the first stage, except for the normal group of animals being given saline injection, each of the other animals were intraperitoneally injected with a carcinogen AOM (10 mg/kg), and given free access to 2% DSS water from the next day for 7 days, and then given access to replaced regular drinking water for 14 days. In the second stage, the animals were given free access to 2% DSS water for 10 days, and then given access to replaced regular drinking water for 14 days. In the third stage, the animals were given free access to 2% DSS water for 10 days, and then given access to replaced regular drinking water for 11 days. The normal group was given access to regular drinking water throughout the experiment. The diet, water drinking and body weights of the animals were recorded daily and DAI scores were made, and the animals were killed and harvested at the 10th week. In this experiment, the animals were divided into groups and administrated on the first day of a modeling period of the second stage, and the total number of groups was set to 5 groups. The first group was a blank control group (Normal), in which a total of 12 animals were given access to drinking water by gavage; the second group was a model group (AOM/DSS), in which a total of 22 animals were given access to drinking water by gavage; the third group was a positive drug control group (5-ASA+AOM/DSS), in which a total of 22 animals were given access to 100 mg/kg of mesalazine (5-ASA) by gavage; and the fourth and fifth groups were monotropein-intervening groups (Mo+AOM/DSS), which were a high dose of 8 mg/kg and a low dose of 2 mg/kg, respectively, with 17 animals in each group. Dosing was conducted daily until dissection.
(1) The calculation formula of a DAI score: DAI value=(score of weight loss+score of stool trait+score of blood in stool)/3.
The animals were anesthetized and harvested, and the liver, spleen, thymus and testis were weighed to calculate the organ coefficient; the colon tissue was taken, measured with a ruler for the length, and measured with a vernier caliper for the thickness, and the number and size of tumors and degree of colonic ulceration and adhesion were recorded; respective tissues were cut into small pieces and fixed, and the remaining tissues were frozen and stored; and the fixed tissues were used for HE staining and immunohistochemistry.

[2] = system: AOM/DSS colon cancer model; test: AOM/DSS colon cancer model, Experiment 2 (colon length, thickness, tumors); type: in vivo, Balb/c mice; settings: 2 mg/kg once a day
Method: Experimental method: 70 Balb/c mice of 6-8 weeks were purchased from the Experimental Animal Center in Guangzhou University of Chinese Medicine, weighed about 18-22 g, and subjected to adaptive feeding for 10 days. Modeling was divided into three stages. In the first stage, except for the normal group of animals being given saline injection, each of the other animals were intraperitoneally injected with a carcinogen AOM (10 mg/kg), and given free access to 2% DSS water from the next day for 7 days, and then given access to replaced regular drinking water for 14 days. In the second stage, the animals were given free access to 2% DSS water for 10 days, and then given access to replaced regular drinking water for 14 days. In the third stage, the animals were given free access to 2% DSS water for 10 days, and then given access to replaced regular drinking water for 11 days. The normal group was given access to regular drinking water throughout the experiment. The diet, water drinking and body weights of the animals were recorded daily and DAI scores were made, and the animals were killed and harvested at the 10th week. In this experiment, the animals were divided into groups and administrated on the first day of a modeling period of the second stage, where a total of 7 groups were set, each group including 10 animals. The first group was a blank control group (control) that was given access to drinking water by gavage; the second group was a model group (model), in which a total of 10 animals were given access to drinking water by gavage; the third group was a vitamin D3 positive administration control group (VD3, 0.2 mg/kg); and the fourth to seventh groups were given monotropein, desacetyl asperulosidic acid, asperuloside, and asperulosidic acid (groups labeled as: Mo, As, Aa, Da), respectively at a given dose of 2 mg/kg. Dosing was conducted once a day until the end of the experiment. At the end of the experiment, the animals were anesthetized and harvested, and the colon tissue was taken, measured with a ruler for the length, and measured with a vernier caliper for the thickness. The effects of monotropein, desacetyl asperulosidic acid, asperuloside and asperulosidic acid on expression of the vitamin D receptor were detected.

[3] = system: SMB-231 pancreatic cancer cells; test: In vitro proliferation inhibition of SMB-231 pancreatic cancer cells; type: cell-based; settings: concentration of 1 uM; compared with blank control group
Method: The SMB-231 pancreatic cancer cells were thawed, and cultured in a changed medium after 24 hours. Medium preparation method: 6% serum, 1% of a bispecific antibody+a 1640 basal medium. After grown to confluent, the cells were digested and subcultured to expand the number of cells. When reached the required amount, the cells were digested by trypsin, centrifuged, and resuspended in PBS to prepare a cell suspension of 1×10^8 cells/ml. A part of the cell suspension was added with the monotropein, desacetyl asperulosidic acid, asperuloside, and asperulosidic acid respectively, and the inhibition rate (%) of tumor cell proliferation by each of these different compounds was examined.

## O=C(O)C1=CO[C@@H](O[C@@H]2O[C@H](CO)[C@@H](O)[C@H](O)[C@H]2O)[C@H]2[C@@H]1C=C[C@]2(O)CO [monotropein]
[1]; monotropein high (8 mg/kg) and low (2 mg/kg) doses, 5-ASA 100 mg/kg
  spleen enlargement caused by AOM/DSS modeling (organ coefficient): significantly reduce the spleen enlargement
[1]; per group, monotropein 8 mg/kg and 2 mg/kg groups (17 animals each), 5-ASA 100 mg/kg (22 animals), gavage daily, model group 8-12
  anal prolapse occurrence at the third stage of modeling: 2-6 animals
[2]
  incidence and development of colorectal cancers: inhibiting the incidence and development of colorectal cancers
[3]
  proliferation of SMB-231 pancreatic cancer cells in vitro: significantly inhibit the proliferation
